Measured values taken from the supplement of paper PMC10307832.

Tests used:
Test in all cases: relative viability (nuclei count vs DMSO), 5 days (fraction); higher = more cells survive
HCC-827 = tested on: HCC-827
Summary of the method: (§1)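 After 5 days of treatment, lung cancer cells in 1536-well plates were fixed and stained in a single step (final 0.05% Triton X-100, 1% formaldehyde, 1 ug/ml Hoechst) and their nuclei counted on 4× images. Treatment had been applied by pin tool the day after seeding as one drug alone or as a fixed anchor-drug dose with five library-drug doses (not always all listed) in √10 steps. Relative viability is the nuclei count of treated wells divided by that of vehicle wells, and values are medians of duplicate plates.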

NCI-H2170 = tested on: NCI-H2170
Summary of the method: as §1

NCI-H2085 = tested on: NCI-H2085
Summary of the method: as §1

LU99A = tested on: LU99A
Summary of the method: as §1

NCI-H1975 = tested on: NCI-H1975
Summary of the method: as §1

BEN = tested on: BEN
Summary of the method: as §1

NCI-H647 = tested on: NCI-H647
Summary of the method: as §1

H3255 = tested on: H3255
Summary of the method: as §1

NCI-H1437 = tested on: NCI-H1437
Summary of the method: as §1

COR-L 105 = tested on: COR-L 105
Summary of the method: as §1

EPLC-272H = tested on: EPLC-272H
Summary of the method: as §1

NCI-H2342 = tested on: NCI-H2342
Summary of the method: as §1

LOU-NH91 = tested on: LOU-NH91
Summary of the method: as §1

PC-3 [JPC-3] = tested on: PC-3 [JPC-3]
Summary of the method: as §1

LCLC-97TM1 = tested on: LCLC-97TM1
Summary of the method: as §1

NCI-H2087 = tested on: NCI-H2087
Summary of the method: as §1

EKVX = tested on: EKVX
Summary of the method: as §1

NCI-H1666 = tested on: NCI-H1666
Summary of the method: as §1

201T = tested on: 201T
Summary of the method: as §1

NCI-H650 = tested on: NCI-H650
Summary of the method: as §1

SW 1573 = tested on: SW 1573
Summary of the method: as §1

Nc1ccn([C@@H]2O[C@H](CO)[C@@H](O)[C@@H]2O)c(=O)n1 [Cytarabine] + COc1cc2c(Oc3ccc(NC(=O)C4(C(=O)Nc5ccc(F)cc5)CC4)cc3F)ccnc2cc1OCCCN1CCOCC1 [Foretinib] (partner 0.25 µM)
relative viability (HCC-827; first compound 0.005 µM): 0.721
relative viability (HCC-827; first compound 0.01581 µM): 0.424
relative viability (HCC-827; first compound 0.05 µM): 0.368
relative viability (HCC-827; first compound 0.1581 µM): 0.169
relative viability (HCC-827; first compound 0.5 µM): 0.177
relative viability (NCI-H2170; first compound 0.005 µM): 0.736
relative viability (NCI-H2170; first compound 0.01581 µM): 0.458
relative viability (NCI-H2170; first compound 0.05 µM): 0.672
relative viability (NCI-H2170; first compound 0.1581 µM): 0.515
relative viability (NCI-H2170; first compound 0.5 µM): 0.569
relative viability (NCI-H2085; first compound 0.005 µM): 0.994
relative viability (NCI-H2085; first compound 0.01581 µM): 0.847
relative viability (NCI-H2085; first compound 0.05 µM): 0.75
relative viability (NCI-H2085; first compound 0.1581 µM): 0.555
relative viability (NCI-H2085; first compound 0.5 µM): 0.475
relative viability (LU99A; first compound 0.005 µM): 0.762
relative viability (LU99A; first compound 0.01581 µM): 0.773
relative viability (LU99A; first compound 0.05 µM): 0.809
relative viability (LU99A; first compound 0.1581 µM): 0.74
relative viability (LU99A; first compound 0.5 µM): 0.648
relative viability (NCI-H1975; first compound 0.005 µM): 0.982
relative viability (NCI-H1975; first compound 0.01581 µM): 1.03
relative viability (NCI-H1975; first compound 0.05 µM): 0.889
relative viability (NCI-H1975; first compound 0.1581 µM): 0.481
relative viability (NCI-H1975; first compound 0.5 µM): 0.314
relative viability (BEN; first compound 0.005 µM): 0.768
relative viability (BEN; first compound 0.01581 µM): 0.515
relative viability (BEN; first compound 0.05 µM): 0.301
relative viability (BEN; first compound 0.1581 µM): 0.278
relative viability (BEN; first compound 0.5 µM): 0.222
relative viability (NCI-H647; first compound 0.005 µM): 0.625
relative viability (NCI-H647; first compound 0.01581 µM): 0.617
relative viability (NCI-H647; first compound 0.05 µM): 0.282
relative viability (NCI-H647; first compound 0.1581 µM): 0.109
relative viability (NCI-H647; first compound 0.5 µM): 0.11
relative viability (H3255; first compound 0.005 µM): 0.889
relative viability (H3255; first compound 0.01581 µM): 0.905
relative viability (H3255; first compound 0.05 µM): 0.628
relative viability (H3255; first compound 0.1581 µM): 0.665
relative viability (H3255; first compound 0.5 µM): 0.531
relative viability (NCI-H1437; first compound 0.005 µM): 0.973
relative viability (NCI-H1437; first compound 0.01581 µM): 0.922
relative viability (NCI-H1437; first compound 0.05 µM): 0.626
relative viability (NCI-H1437; first compound 0.1581 µM): 0.287
relative viability (NCI-H1437; first compound 0.5 µM): 0.251
relative viability (COR-L 105; first compound 0.005 µM): 0.972
relative viability (COR-L 105; first compound 0.01581 µM): 1.29
relative viability (COR-L 105; first compound 0.05 µM): 0.825
relative viability (COR-L 105; first compound 0.1581 µM): 0.812
relative viability (COR-L 105; first compound 0.5 µM): 0.438
relative viability (EPLC-272H; first compound 0.005 µM): 0.639
relative viability (EPLC-272H; first compound 0.01581 µM): 0.477
relative viability (EPLC-272H; first compound 0.05 µM): 0.461
relative viability (EPLC-272H; first compound 0.1581 µM): 0.196
relative viability (EPLC-272H; first compound 0.5 µM): 0.234
relative viability (NCI-H2342; first compound 0.005 µM): 0.983
relative viability (NCI-H2342; first compound 0.01581 µM): 0.887
relative viability (NCI-H2342; first compound 0.05 µM): 0.798
relative viability (NCI-H2342; first compound 0.1581 µM): 0.784
relative viability (NCI-H2342; first compound 0.5 µM): 0.676
relative viability (LOU-NH91; first compound 0.005 µM): 0.993
relative viability (LOU-NH91; first compound 0.01581 µM): 0.926
relative viability (LOU-NH91; first compound 0.05 µM): 0.869
relative viability (LOU-NH91; first compound 0.1581 µM): 0.585
relative viability (LOU-NH91; first compound 0.5 µM): 0.712
relative viability (PC-3 [JPC-3]; first compound 0.005 µM): 0.947
relative viability (PC-3 [JPC-3]; first compound 0.01581 µM): 0.832
relative viability (PC-3 [JPC-3]; first compound 0.05 µM): 0.939
relative viability (PC-3 [JPC-3]; first compound 0.1581 µM): 0.629
relative viability (PC-3 [JPC-3]; first compound 0.5 µM): 0.615
relative viability (LCLC-97TM1; first compound 0.005 µM): 0.924
relative viability (LCLC-97TM1; first compound 0.01581 µM): 0.814
relative viability (LCLC-97TM1; first compound 0.05 µM): 0.749
relative viability (LCLC-97TM1; first compound 0.1581 µM): 0.469
relative viability (LCLC-97TM1; first compound 0.5 µM): 0.485
relative viability (NCI-H2087; first compound 0.005 µM): 1.11
relative viability (NCI-H2087; first compound 0.01581 µM): 0.834
relative viability (NCI-H2087; first compound 0.05 µM): 0.851
relative viability (NCI-H2087; first compound 0.1581 µM): 0.491
relative viability (NCI-H2087; first compound 0.5 µM): 0.253
relative viability (EKVX; first compound 0.005 µM): 0.866
relative viability (EKVX; first compound 0.01581 µM): 0.594
relative viability (EKVX; first compound 0.05 µM): 0.622
relative viability (EKVX; first compound 0.1581 µM): 0.413
relative viability (EKVX; first compound 0.5 µM): 0.793
relative viability (NCI-H1666; first compound 0.005 µM): 0.921
relative viability (NCI-H1666; first compound 0.01581 µM): 0.869
relative viability (NCI-H1666; first compound 0.05 µM): 0.799
relative viability (NCI-H1666; first compound 0.1581 µM): 0.549
relative viability (NCI-H1666; first compound 0.5 µM): 0.541
relative viability (201T; first compound 0.005 µM): 1.1
relative viability (201T; first compound 0.01581 µM): 1.12
relative viability (201T; first compound 0.05 µM): 1.02
relative viability (201T; first compound 0.1581 µM): 0.762
relative viability (201T; first compound 0.5 µM): 0.323
relative viability (NCI-H650; first compound 0.005 µM): 0.857
relative viability (NCI-H650; first compound 0.01581 µM): 0.642
relative viability (NCI-H650; first compound 0.05 µM): 0.504
relative viability (NCI-H650; first compound 0.1581 µM): 0.283
relative viability (NCI-H650; first compound 0.5 µM): 0.227
relative viability (SW 1573; first compound 0.005 µM): 0.929
relative viability (SW 1573; first compound 0.01581 µM): 0.688
relative viability (SW 1573; first compound 0.05 µM): 0.881
relative viability (SW 1573; first compound 0.1581 µM): 0.464
relative viability (SW 1573; first compound 0.5 µM): 0.202
